{
  "source": "patent US9315544B2",
  "about": "“Method of treating eosinophilia by administering an immunomodulating peptide” (National Tsing Hua University, priority 2012, dated 2016)",
  "key": {"human CCL11": {"tested_on": "human CCL11", "assay": "CCL11 protein release from Beas-2B cells by ELISA", "type": "cell-based", "conditions": "Beas-2B cells, 24 h", "experimental": "FIG. 2 illustrates CCL11 expression in CMP and ECP co-treated Beas-2B cells. Beas-2B cells were starved with serum free medium for 24 h, followed by stimulation with ECP (column 2). Cells were stimulated with PBS as negative control (column 1) and ECP in the absence of CMP (column 2) or presence of 1 μM (column 3), 2.5 μM (column 4), 5 μM (column 5), 10 μM (column 6) CMP at 37° C. for 24 h. CCL11 protein level was determined by ELISA kit employing CCL11 antibody. The data represented mean±SD (standard deviation) of at least three independent experiments. ***, p<0.001; **, p<0.01\nFIG. 3 illustrates CCL11 expression in CMP and IL-4 co-treated Beas-2B cells. Beas-2B cells were starved with serum free medium for 24 h, followed by stimulation with PBS (column 1) or 10 ng/mL IL-4 (column 2-7). Cells were stimulated with 10 ng/mL IL-4 in the absence […] or presence of 1 μM (column 3), 2.5 μM (column 4), 5 μM (column 5) and 10 μM (column 6) CMP at 37° C. for 24 h. CCL11 protein level was determined by ELISA kit employing CCL11 antibody. The data represented mean±SD (standard deviation) of at least three independent experiments. ***, p<0.001 (Stimulation with IL-4 compared with PBS treated Beas-2B cells). *, p<0.05 (Stimulation with indicated concentrations of CMP compared with IL-4 treated Beas-2B cells).\nCCL11 ELISA kit (R&D) is an in vitro enzyme-linked immunosorbent assay for quantitative determination of human CCL11 concentration in cell culture supernatants. This assay employed an antibody specific for human CCL11 coated on a 96-well plate. The wells were incubated with 50 μL standard or sample for 2.5 hours at room temperature. After washing with 1× wash solution five times, 200 μL of CCL11 conjugate were added into each wells for 1 h. After washing, 100 μL TMB One-Step Substrate Reagent were added into each wells at room temperature for 30 minutes. 50 μL of Stop Solution were added into each wells and read at 450 nm by spectrophotometer immediately. Limit of detection in the assay was 5 pg/mL.\nTo investigate whether CMP influenced ECP-mediated CCL11 expression, Beas-2B cells were separately stimulated with 5 μM ECP in the absence of CMP and in the presence of 1 μM, 2.5 μM, 5 μM and 10 μM CMP at 37° C. for 24 h.\nTo further investigate whether CMP influenced CCL11 production from other stimulation in Beas-2B cells, serum-deprived Beas-2B cells were stimulated with 10 ng/mL IL-4, a dominant cytokine regulating CCL11, alone or in the presence of CMP at concentrations 1, 2.5, 5 and 10 μM at 37° C. for 24 h."}, "CCL11": {"tested_on": "CCL11", "assay": "Cytokine mRNA expression analysis by quantitative real-time PCR (CCL11)", "type": "cell-based", "conditions": "Beas-2B cells", "experimental": "FIG. 1A-1B illustrates immunomodulatory effect of CMP on transcription of cytokine. Beas-2B cells were starved with serum free medium for 24 h, followed by stimulation with refold 5 μM ECP or 5 μM CMP or co-treatment with 5 μM ECP and 5 μM CMP at 37° C. for (A) 6 h and (B) 12 h, respectively. The mRNA quantities of CCL11, CCL24 and CCL26 were determined by real-time PCR. Beas-2B cells without protein treatment were used as control. […] The data represented at least three independent experiments and the error bar was shown as standard deviation (SD).\nFor inflammatory cytokine expression analysis, Beas-2B cells were stimulated with three different conditions: 1) 5 μM ECP, 2) 5 μM CMP and 3) co-incubated with 5 μM ECP and 5 μM CMP at 37° C. for 6 and 12 h. After incubation, total RNAs were extracted with RNA TRIzol reagent (Invitrogen, Inc) and reverse transcribed with MoMLV-reverse transcriptase (Promega, Madison, Wis.). SYBR Green-based quantitative real-time PCR will be used to quantify the gene of interest, relative expression ratios of genes of interest were normalized to glyceraldehyde-3-phosphate dehydrogenase (GAPDH) transcripts. Changes in cytokine expression were measured by quantitative real-time PCR (qRT-PCR) employing the StepOne™ amplification and detection system (Life Technologies Corporation). Data were analyzed by application of the StepOne™ quantification program software (version 2.22, Life Technologies Corporation) and expressed as means±S.D. Significance analysis was carried out by a two-sample unequal variance t-test with two-tailed distribution (post test). Significance was set as P<0.05.\nECP, the best known marker protein of asthma, is involved in triggering cytokine expression in bronchial epithelial cells. Real-time PCR analysis was carried out to quantify expression levels of indicated cytokines upon treatment with recombinant ECP in the presence and absence of CMP Bronchial epithelial Beas-2B cells were separately cultured in serum-free medium in the presence of 5 μM ECP, 5 μM CMP and both 5 μM ECP and 5 μM CMP for 6 and 12 h to monitor cytokine and chemokine gene modulation using real-time quantitative PCR. Untreated Beas-2B cells incubated at the same condition for 6 h and 12 h were used as negative controls. Here variation of gene expression levels of chemokines including CCL11, CCL24 and CCL26 was analyzed."}},
  "data": [
    {"sequence": "NYRWRCKNQN (CMP)", "values": [
      {"measurement": "release of CCL11 induced by IL-4, reduced to", "setting": "human CCL11; 10 ng/mL IL-4 with 5 μM CMP", "value": 48.1, "unit": "pg/mL"},
      {"measurement": "release of CCL11 induced by IL-4, reduced to", "setting": "human CCL11; 10 ng/mL IL-4 with 10 μM CMP", "value": 30.2, "unit": "pg/mL"},
      {"measurement": "CCL11 production induced by IL-4", "setting": "human CCL11; 10 ng/mL IL-4 with 1 or 2.5 μM CMP", "value": "did not reduce"},
      {"measurement": "CCL11 induced by ECP, reduced to", "setting": "human CCL11; 5 μM ECP and 5 μM CMP", "value": 7.55, "unit": "pg/mL"},
      {"measurement": "CCL11 induced by ECP, reduced to", "setting": "human CCL11; 5 μM ECP and 10 μM CMP", "value": 8.94, "unit": "pg/mL"},
      {"measurement": "ECP-mediated CCL11 production", "setting": "human CCL11; 5 μM ECP and 1 or 2.5 μM CMP", "value": "did not reduce"},
      {"measurement": "effect on chemokine gene expression (CCL11, CCL24, CCL26)", "setting": "CCL11; 5 μM CMP alone, 6 and 12 h", "value": "no effect"},
      {"measurement": "ECP-induced gene expression of CCL11", "setting": "CCL11; co-treatment 5 μM ECP and 5 μM CMP, 6 h", "value": "significant reduction"}
    ]}
  ]
}
